Source: PMC12068934 (Nature chemistry, 2024)

How the values were obtained:
OvsA = OvsA (Vreelandella halophila, UniProt A0A9X4Y9G9); test: LC-MS after mBBr derivatization; assay type: biochemical; conditions: histidine 1 mM, DTT 4 mM, pH 8, room temperature
SenA = SenA (Variovorax paradoxus, UniProt A0ACH4EUD1); test: preparative enzymatic synthesis, product NMR; assay type: biochemical; conditions: DTT 20 mM, pH 8, room temperature, 24 h

SMILES	LC-MS after mBBr derivatization (OvsA)	preparative enzymatic synthesis, product NMR (SenA; hercynine 5 mM)	preparative enzymatic synthesis, product NMR (SenA; SeGlcNAc 6 mM)
CC(=O)N[C@@H]1[C@@H](O)[C@H](O)[C@@H](CO)O[C@H]1[SeH] [SeGlcNAc, N-acetyl-1-seleno-β-D-glucosamine]	reaction of the NHISS with SeGlcNAc and histidine resulted in rapid formation of a species	large-scale reaction containing SenA and its substrates hercynine and SeGlcNAc	
C[N+](C)(C)[C@@H](Cc1cnc[nH]1)C(=O)[O-] [hercynine, Nα-trimethylhistidine]			large-scale reaction containing SenA and its substrates hercynine and SeGlcNAc
